ChEMBL document CHEMBL1136446, “Synthesis and antiproliferative activity of retroetoposide” (Bioorg Med Chem Lett, 2003)

Each compound was assayed on L1210 (assay: Inhibitory activity against L1210 cell line). Conditions: Mus musculus.
Assay type: functional, cell-based
`COc1cc([C@@H]2c3cc4c(cc3[C@@H](O[C@@H]3O[C@H]5CO[C@@H](C)O[C@H]5[C@H](O)[C@@H]3O)[C@H]3C(=O)OC[C@H]23)OCO4)cc(OC)c1O` gave an IC50 of 6.74 µM. `COc1cc([C@@H]2c3cc4c(cc3[C@@H](O)C3C(=O)OCC32)OCO4)cc(OC)c1O` (stereo partly drawn) gave an IC50 of 27.4 µM. `COc1cc([C@@H]2c3cc4c(cc3[C@@H](O[C@@H]3O[C@@H]5CO[C@@H](C)O[C@H]5[C@H](O)[C@H]3O)[C@H]3COC(=O)[C@H]23)OCO4)cc(OC)c1O` [ETOPOSIDE] gave an IC50 of 0.834 µM.
